From patent US10752587B2, “Homobispiperidinyl derivatives as liver X receptor beta agonists, compositions and their use” (Merck Sharp & Dohme Corp., priority 2015, dated 2020)

Columns and labels:
[1] = target: T1, glutathione-S-transferase (GST) tagged LXRbeta LBD (ligand binding domain) (Homo sapiens, UniProt P55055); experiment: LanthaScreen TR-FRET Liver X Receptor Coactivator Assay, co-activator recruitment to LXRbeta LBD; format: biochemical; details: for EC50: potency (Inflection Point, IP), co-activator recruitment to LXRbeta LBD, in relation to T0901317, read-out: LXR beta IP; for Emax: read-out: LXR beta Activity @ max dose (%)
T1 construct: purchased Invitrogen pv4658.pps
T1 sequence (P55055 222-460 limits assumed): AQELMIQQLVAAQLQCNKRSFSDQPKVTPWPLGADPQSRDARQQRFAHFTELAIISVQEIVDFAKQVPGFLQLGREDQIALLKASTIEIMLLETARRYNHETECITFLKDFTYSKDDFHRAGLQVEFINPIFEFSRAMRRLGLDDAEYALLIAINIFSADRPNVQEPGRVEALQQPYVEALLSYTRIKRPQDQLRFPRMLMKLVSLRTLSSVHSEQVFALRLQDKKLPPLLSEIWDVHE
Procedure, shortened: (§1)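 TR-FRET coactivator recruitment; compound + LBD, then fluorescein-coactivator peptide/Tb-anti-GST Ab mix; RT incubation; IP and Emax vs T0901317.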

[2] = target: T2, glutathione-S-transferase (GST) tagged LXRalpha LBD (ligand binding domain) (Homo sapiens, UniProt Q13133); experiment: LanthaScreen TR-FRET Liver X Receptor Coactivator Assay, co-activator recruitment to LXRalpha LBD; format: biochemical; details: for LXR alpha IP (nM) / EC50: potency (Inflection Point, IP), co-activator recruitment to LXRalpha LBD, in relation to T0901317; for Emax: read-out: LXR alpha Activity @ max dose (%); for EC50: read-out: LXR alpha IP
T2 construct: purchased Invitrogen pv4655
T2 sequence (Q13133 209-447 limits assumed): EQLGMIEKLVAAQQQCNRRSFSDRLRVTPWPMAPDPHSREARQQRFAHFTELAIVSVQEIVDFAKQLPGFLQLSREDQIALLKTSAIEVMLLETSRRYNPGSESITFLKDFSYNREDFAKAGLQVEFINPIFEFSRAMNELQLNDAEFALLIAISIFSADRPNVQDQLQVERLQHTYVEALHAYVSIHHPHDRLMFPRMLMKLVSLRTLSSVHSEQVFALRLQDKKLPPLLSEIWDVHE
Procedure, shortened: as §1

[3] = efficacy at max dose, in relation to reference dual agonist T0901317

In the case of `CN(C)C(=O)c1ccc(N2CCC(CC3CN(C(=O)[C@](O)(c4cccc(OC(F)(F)F)c4)C(F)(F)F)C3)CC2)cc1Cl` [Example 2-68, 2-chloro-N,N-dimethyl-4-{4-[(1-{(2R)-3,3,3-trifluoro-2-hydroxy-2-[3-(trifluoro-methoxy)phenyl]propanoyl}azetidin-3-yl)methyl]piperidin-1-yl}benzamide], the “LXR beta Activity @ max dose (%)” value [1, 3] is reported as 63%, the EC50 [1] is reported as 22 nM and the “LXR alpha Activity @ max dose (%)” value [2, 3] is reported as 16%. The “LXR alpha IP (nM)” value [2] was “NO IP”.
Work on `CN(C)C(=O)c1ccc(N2CCC(CC3CN(C(=O)C(N)(c4ccccc4)C(F)(F)F)C3)CC2)cc1Cl` (stereo not shown) [Example 2-69, 4-(4-{[1-(2-amino-3,3,3-trifluoro-2-phenyl-propanoyl)azetidin-3-yl]methyl}piperidin-1-yl)-2-chloro-N,N-dimethyl-benzamide] yielded an Emax [1, 3] of 112%, an EC50 [1] of 1110 nM and an Emax [2, 3] of 16%. For the same molecule, the “LXR alpha IP (nM)” value [2] was “NO IP”.
With `COc1cccc([C@@](O)(C(=O)N2CC(CC3CCN(c4ccc(C(=O)N(C)C)c(Cl)c4)CC3)C2)C(F)F)c1` [Example 2-70, 2-chloro-4-[4-({1-[(2R)-3,3-difluoro-2-hydroxy-2-(3-methoxy-phenyl)propanoyl]azetidin-3-yl}methyl)piperidin-1-yl]-N,N-dimethyl-benzamide] the Emax [1, 3] was 48%, the EC50 [1] was 92 nM and the Emax [2, 3] was 2%. The “LXR alpha IP (nM)” value [2] was “NO IP”.
`CN(C)C(=O)c1ccc(N2CCC(CC3CCN(C(=O)[C@](O)(c4ccccc4)C(F)(F)F)C3)CC2)cc1Cl` (stereo partly drawn) [Example 2-71, 2-chloro-N,N-dimethyl-4-[4-({1-[(2R)-3,3,3-trifluoro-2-hydroxy-2-phenyl-propanoyl]pyrrolidin-3-yl}methyl)piperidin-1-yl]benzamide] was tested, and the Emax [1, 3] was 64%, the EC50 [1] was 84 nM and the Emax [2, 3] was 9%. The “LXR alpha IP (nM)” value [2] was “NO IP”.
With `COc1cccc([C@@](O)(C(=O)N2CCC(CC3CCN(c4ccc(C(=O)N(C)C)c(Cl)c4)CC3)C2)C(F)(F)F)c1` (stereo partly drawn) [Example 2-72, 2-chloro-N,N-dimethyl-4-[4-({1-[(2R)-3,3,3-trifluoro-2-hydroxy-2-(3-methoxy-phenyl)propanoyl]pyrrolidin-3-yl}methyl)piperidin-1-yl]benzamide] the Emax [1, 3] was 39%, the EC50 [1] was 74 nM and the Emax [2, 3] was 0%. For the same molecule, the “LXR alpha IP (nM)” value [2] was “NO IP”.
`CC(C)(C(=O)N1CCC(CC2CCN(c3cccc(S(C)(=O)=O)c3)CC2)CC1)c1ccccc1` [Example 2-73, 1-(2-methyl-2-phenylpropanoyl)-4-({1-[3-(methylsulfonyl)phenyl]piperidin-4-yl}methyl)piperidine] gave an Emax [1, 3] of 77%, an EC50 [1] of 223 nM and an Emax [2, 3] of 35%. It also gave an EC50 [2] of 5370 nM.
For `CS(=O)(=O)c1cccc(N2CCC(CC3CCN(C(=O)[C@](O)(c4ccccc4)C(F)(F)F)CC3)CC2)c1` [Example 2-74, (2R)-1,1,1-trifluoro-3-[4-({1-[3-(methylsulfonyl)phenyl]piperidin-4-yl}methyl)piperidin-1-yl]-3-oxo-2-phenylpropan-2-ol], the Emax [1, 3] was 87%, the EC50 [1] was 39 nM and the Emax [2, 3] was 38%. It also gave an EC50 [2] of 444 nM.
Work on `Cc1cc(N2CCC(CC3(C)CCN(C(=O)[C@](O)(c4cc(F)cc(Cl)c4)C(F)(F)F)CC3)CC2)ccc1C(=O)N(C)C` [Example 2-75, 4-[4-({1-[(2R)-2-(3-chloro-5-fluorophenyl)-3,3,3-trifluoro-2-hydroxy-propanoyl]-4-methylpiperidin-4-yl}methyl)piperidin-1-yl]-N,N,2-trimethyl-benzamide] yielded an Emax [1, 3] of 80%, an EC50 [1] of 12 nM and an Emax [2, 3] of 31%. It also gave an EC50 [2] of 167 nM.
Work on `Cc1cc(N2CCC(CC3(C)CCN(C(=O)[C@](O)(c4cccc(Cl)c4)C(F)(F)F)CC3)CC2)ccc1C(=O)N(C)C` [Example 2-76, 4-[4-({1-[(2R)-2-(3-chloro-phenyl)-3,3,3-trifluoro-2-hydroxy-propanoyl]-4-methylpiperidin-4-yl}methyl)piperidin-1-yl]-N,N,2-trimethyl-benzamide] yielded an Emax [1, 3] of 46%, an EC50 [1] of 14 nM and an Emax [2, 3] of 4%. For the same molecule, the “LXR alpha IP (nM)” value [2] was “NO IP”.
For `Cc1cc(N2CCC(CC3(C)CCN(C(=O)[C@](O)(c4cccc(OC(C)C)c4)C(F)(F)F)CC3)CC2)ccc1C(=O)N(C)C` [Example 2-77, N,N,2-trimethyl-4-{4-[(4-methyl-1-{(2R)-3,3,3-trifluoro-2-hydroxy-2-[3-(1-methylethoxy)phenyl]propanoyl}piperidin-4-yl)methyl]piperidin-1-yl}benzamide], the Emax [1, 3] was 44%, the EC50 [1] was 45 nM and the Emax [2, 3] was 2%. For the same molecule, the “LXR alpha IP (nM)” value [2] was “NO IP”.
`CCc1cccc([C@@](O)(C(=O)N2CCC(C)(CC3CCN(c4ccc(C(=O)N(C)C)c(C)c4)CC3)CC2)C(F)(F)F)c1` [Example 2-78, 4-[4-({1-[(2R)-2-(3-ethylphenyl)-3,3,3-trifluoro-2-hydroxy-propanoyl]-4-methylpiperidin-4-yl}methyl)piperidin-1-yl]-N,N,2-trimethyl-benzamide] was tested, and the Emax [1, 3] was 20%, the EC50 [1] was 32 nM and the Emax [2, 3] was 1%. The “LXR alpha IP (nM)” value [2] was “NO IP”.
With `CCOc1cccc([C@@](O)(C(=O)N2CCC(C)(CC3CCN(c4ccc(C(=O)N(C)C)c(C)c4)CC3)CC2)C(F)(F)F)c1` [Example 2-79, 4-[4-({1-[(2R)-2-(3-ethoxy-phenyl)-3,3,3-trifluoro-2-hydroxy-propanoyl]-4-methylpiperidin-4-yl}methyl)piperidin-1-yl]-N,N,2-trimethyl-benzamide] the Emax [1, 3] was 30%, the EC50 [1] was 40 nM and the Emax [2, 3] was 0%. For the same molecule, the “LXR alpha IP (nM)” value [2] was “NO IP”.
`COc1cccc([C@@](O)(C(=O)N2CCC(C)(CC3CCN(c4ccc(C(=O)N(C)C)c(C)c4)CC3)CC2)C(F)(F)F)c1` [Example 2-80, N,N,2-trimethyl-4-[4-({4-methyl-1-[(2R)-3,3,3-trifluoro-2-hydroxy-2-(3-methoxyphenyl)propanoyl]piperidin-4-yl}methyl)piperidin-1-yl]benzamide] showed an Emax [1, 3] of 19%, an EC50 [1] of 19 nM and an Emax [2, 3] of 0%. For the same molecule, the “LXR alpha IP (nM)” value [2] was “NO IP”.
With `Cc1cc(N2CCC(CC3CN(C(=O)[C@](O)(c4cc(F)cc(Cl)c4)C(F)(F)F)C3)CC2)ccc1C(=O)N(C)C` [Example 2-81, 4-[4-({1-[(2R)-2-(3-chloro-5-fluorophenyl)-3,3,3-trifluoro-2-hydroxy-propanoyl]azetidin-3-yl}methyl)piperidin-1-yl]-N,N,2-trimethyl-benzamide] the Emax [1, 3] was 103%, the EC50 [1] was 39 nM and the Emax [2, 3] was 40%. For the same molecule, the EC50 [2] was 798 nM.
`CC(C)Oc1cccc(C(O)(C(=O)N2CCC(CC3CCN(c4ccc(C(=O)N(C)C)c(Cl)c4)CC3)CC2)C(F)(F)F)c1` (stereo not shown) [Example 2-82, 2-chloro-N,N-dimethyl-4-{4-[(1-{3,3,3-trifluoro-2-hydroxy-2-[3-(1-methyl-ethoxy)phenyl]propanoyl}piperidin-4-yl)methyl]piperidin-1-yl}benzamide] showed an Emax [1, 3] of 50%, an EC50 [1] of 12 nM and an Emax [2, 3] of 13%. The “LXR alpha IP (nM)” value [2] was “NO IP”.
For `CN(C)C(=O)c1ccc(N2CCC(CC3CCN(C(=O)[C@](O)(c4cccc(Br)c4)C(F)(F)F)CC3)CC2)cc1Cl` [Example 2-83, 4-[4-({1-[(2R)-2-(3-bromo-phenyl)-3,3,3-trifluoro-2-hydroxy-propanoyl]piperidin-4-yl}methyl)piperidin-1-yl]-2-chloro-N,N-dimethyl-benzamide], the Emax [1, 3] was 68%, the EC50 [1] was 4 nM and the Emax [2, 3] was 26%. It also gave an EC50 [2] of 83 nM.
`CN(C)C(=O)c1ccc(N2CCC(CC3CCN(C(=O)[C@](O)(c4cccc(F)c4)C(F)(F)F)CC3)CC2)cc1Cl` [Example 2-84, 2-chloro-N,N-dimethyl-4-[4-({1-[(2R)-3,3,3-trifluoro-2-(3-fluoro-phenyl)-2-hydroxy-propanoyl]piperidin-4-yl}methyl)piperidin-1-yl]benzamide] gave an Emax [1, 3] of 83%, an EC50 [1] of 7 nM and an Emax [2, 3] of 38%. It also gave an EC50 [2] of 140 nM.
Molecule `CN(C)C(=O)c1ccc(N2CCC(CC3CCN(C(=O)[C@](O)(c4ccccc4F)C(F)(F)F)CC3)CC2)cc1Cl` [Example 2-85, 2-chloro-N,N-dimethyl-4-[4-({1-[(2R)-3,3,3-trifluoro-2-(2-fluorophenyl)-2-hydroxy-propanoyl]piperidin-4-yl}methyl)piperidin-1-yl]benzamide] has an Emax [1, 3] of 68%, an EC50 [1] of 17 nM and an Emax [2, 3] of 21%. For the same molecule, the EC50 [2] was 554 nM.
`CN(C)C(=O)c1ccc(N2CCC(CC3CCN(C(=O)[C@](O)(c4cccc(Cl)c4)C(F)(F)F)CC3)CC2)cc1Cl` [Example 2-86, 2-chloro-4-[4-({1-[(2R)-2-(3-chloro-phenyl)-3,3,3-trifluoro-2-hydroxy-propanoyl]piperidin-4-yl}methyl)piperidin-1-yl]-N,N-dimethyl-benzamide] showed an Emax [1, 3] of 68%, an EC50 [1] of 6 nM and an Emax [2, 3] of 22%. The EC50 [2] was 98 nM.
